ChEMBL document CHEMBL5550142, “From lab to nature: Recent advancements in the journey of gastroprotective agents from medicinal chemistry to phytotherapy” (Eur J Med Chem, 2024)
pIC50: −log10 of the molar value. Values after ≈ are worked out from the molar mass of the structure shown.

System: Helicobacter pylori
Assay: Antibacterial activity against Helicobacter pylori assessed as inhibition of bacterial growth by broth micro-dilution assay
Assay type: functional
Conditions: not given

Row | Compound | MIC90
1 | Cc1c(CSc2nc3ccccc3[nH]2)cccc1SCCOC(=O)Nc1ccccc1 | > 64 µg/mL

System: Helicobacter pylori
Assay: Antibacterial activity against Helicobacter pylori assessed as reduction in bacterial growth incubated for 24 hrs by broth micro-dilution method
Assay type: functional
Conditions: not given

Row | Compound | MIC
2 | COc1ccc2cc3[n+](cc2c1OC)CCc1cc2c(cc1-3)OCO2 [BERBERINE] | 0.78 µg/mL
3 | C=CCSSSSCC=C [DIALLYL TETRASULFIDE] | 3 µg/mL (≈ 14.3 µM)
4 | COc1ccc2c(c1OC)C(=O)O[C@@H]2[C@H]1c2cc3c(cc2CCN1C)OCO3 [HYDRASTINE] | 25 µg/mL (≈ 65.2 µM)
5 | COc1cc2ccc(=O)oc2cc1O [SCOPOLETIN] | 50 µg/mL (≈ 260 µM)
6 | COc1cc2ccc(=O)oc2cc1O[C@@H]1O[C@H](CO)[C@@H](O)[C@H](O)[C@H]1O [SCOPOLIN] | 50 µg/mL (≈ 141 µM)

System: Rattus norvegicus
Assay: Gastric ulcerogenic activity in Albino wistar rat assessed as reduction in pyloric lesion at 250 mg/kg, po relative to control
Assay type: functional
Set-up: scale not given: the % may be the effect or the level left
Conditions: not given

Row | Compound | Activity
7 | O=c1oc2ccccc2cc1-c1nc2c(s1)sc1nc(=S)n(-c3ccccc3)c(O)c12 | 78%
8 | CCOC(=O)/C(C(=O)Nc1sc2sc(-c3cc4ccccc4oc3=O)nc2c1C#N)=C(/C)c1ccccc1 | 48%
9 | COc1ccc(-n2ncc(-c3ccccc3)c(C(=O)Nc3sc4sc(-c5cc6ccccc6oc5=O)nc4c3C#N)c2=N)cc1 | 93%
10 | N#CC1=C(N)Nc2nc(-c3cc4ccccc4oc3=O)sc2C1c1ccccc1 (stereo unspecified) | 82%
11 | N#Cc1c(N)sc2sc(-c3cc4ccccc4oc3=O)nc12 | 64%
12 | N#Cc1c(O)nc2sc3sc(-c4cc5ccccc5oc4=O)nc3c2c1O | 70%
13 | N#C/C(C(=O)Nc1sc2sc(-c3cc4ccccc4oc3=O)nc2c1C#N)=C(\C=N\Nc1ccccc1)c1ccccc1 | 66%
14 | N#Cc1c(NC(=O)c2c(-c3ccccc3)cnn(-c3ccc(Cl)cc3)c2=N)sc2sc(-c3cc4ccccc4oc3=O)nc12 | 94%

System: not listed separately
Assay: Inhibition of urease (unknown origin)
Set-up: species or system Homo sapiens
Conditions: not given

Row | Compound | pIC50
15 | COc1ccc(C(=O)N/N=C/c2cc(O)c(O)c(O)c2)cc1OC | 4.90
16 | COc1ccc(C(=O)N/N=C/c2cc(O)cc(O)c2)cc1OC | 5.08
17 | COc1ccc(C(=O)N/N=C/c2cc(O)ccc2O)cc1OC | 4.72
18 | COC(=O)c1ccc(/C=N/NC(=O)Cc2c[nH]c3ccccc23)cc1 | 5.41
19 | COc1ccc(C(=O)N/N=C/c2ccc(O)c(O)c2)cc1OC | 4.74
20 | CC(C)=CCOc1c2ccoc2cc2oc(=O)ccc12 [ISOIMPERATORIN] | 4.44

Biological target: Urease subunit alpha/Urease subunit beta (Helicobacter pylori (strain ATCC 700392 / 26695) (Campylobacterpylori), UniProt P69996)
Assay: Inhibition of Helicobacter pylori urease
Assay type: protein-complex assay
Conditions: not given

Chain of Urease subunit alpha/Urease subunit beta (P69996 whole entry): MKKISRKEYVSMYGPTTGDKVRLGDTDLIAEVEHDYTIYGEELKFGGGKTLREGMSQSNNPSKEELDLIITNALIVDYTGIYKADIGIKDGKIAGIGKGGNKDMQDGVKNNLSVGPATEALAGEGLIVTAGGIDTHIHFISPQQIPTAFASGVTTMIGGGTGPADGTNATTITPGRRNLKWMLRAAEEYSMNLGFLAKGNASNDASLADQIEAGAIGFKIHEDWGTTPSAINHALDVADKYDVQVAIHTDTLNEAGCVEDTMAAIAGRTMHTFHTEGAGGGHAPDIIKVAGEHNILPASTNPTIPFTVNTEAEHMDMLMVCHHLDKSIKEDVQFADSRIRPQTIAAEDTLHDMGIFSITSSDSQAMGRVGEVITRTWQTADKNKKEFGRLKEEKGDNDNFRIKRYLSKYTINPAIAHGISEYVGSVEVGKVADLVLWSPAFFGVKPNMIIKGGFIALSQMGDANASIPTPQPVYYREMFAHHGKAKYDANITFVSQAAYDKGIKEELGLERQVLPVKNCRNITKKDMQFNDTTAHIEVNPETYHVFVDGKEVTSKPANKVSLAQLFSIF
Chain of Urease subunit alpha/Urease subunit beta (P14916 whole entry, further chain): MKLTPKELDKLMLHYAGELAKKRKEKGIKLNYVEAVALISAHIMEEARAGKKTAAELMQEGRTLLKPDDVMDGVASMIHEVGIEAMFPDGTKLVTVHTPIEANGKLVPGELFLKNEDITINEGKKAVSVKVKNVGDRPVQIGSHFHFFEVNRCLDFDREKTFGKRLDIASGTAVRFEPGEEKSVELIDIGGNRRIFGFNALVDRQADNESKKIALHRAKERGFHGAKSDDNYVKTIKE

Row | Compound | pIC50
21 | O=C(Cc1c[nH]c2ccccc12)N/N=C/c1ccc(O)cc1O | 5.92
22 | O=C(Cc1c[nH]c2ccccc12)N/N=C/c1cccc(O)c1O | 6.05
23 | O=C(Cc1c[nH]c2ccccc12)N/N=C/c1ccc(O)c(O)c1 | 6.22

System: Helicobacter pylori
Assay: Antibacterial activity against Helicobacter pylori ATCC 43504 assessed as minimum bactericidal concentration incubated for 24 hrs by broth micro-dilution method
Assay type: functional
Conditions: not given

Row | Compound | MBC
24 | COCCOCCOCCSc1cccc(CSc2nc3ccccc3[nH]2)c1C | 0.5 µg/mL (≈ 1.16 µM)
25 | COCCOCCOCCOCCOCCSc1cccc(CSc2nc3ccccc3[nH]2)c1C | 0.5 µg/mL (≈ 0.96 µM)
26 | Cc1c(CSc2nc3ccccc3[nH]2)cccc1SCCn1c([N+](=O)[O-])cnc1C | 2 µg/mL (≈ 4.55 µM)
27 | Cc1c(CSc2nc3ccccc3[nH]2)cccc1SCCn1cncn1 | 4 µg/mL (≈ 10.5 µM)
28 | Cc1c(CSc2nc3ccccc3[nH]2)cccc1SCCN1CCOCC1 | 1 µg/mL (≈ 2.5 µM)

System: Mus musculus
Assay: Anti-inflammatory activity against carrageenan-induced hind paw edema Swiss albino mouse model assessed as reduction in paw thickness at 10 mg/kg, po relative to control
Assay type: functional
Set-up: scale not given: the % may be the effect or the level left
Conditions: not given

Row | Compound | Activity
29 | CCOC(=O)/C(=N/Nc1ccccc1)Sc1nnc(-c2c([C@H]3CC[C@H]4[C@@H]5CC=C6C[C@H](O)CC[C@]6(C)[C@H]5CC[C@]34C)csc2N)n1-c1ccccc1 | 0.96%
30 | CCOC1=C(Sc2nnc(-c3c([C@H]4CC[C@H]5[C@@H]6CC=C7C[C@H](O)CC[C@]7(C)[C@H]6CC[C@]45C)csc3N)n2-c2ccccc2)C(c2ccccc2)C(C#N)=C(N)N1 (stereo partly specified) | 0.18%
31 | CC(=O)/C(=N/Nc1ccccc1)Sc1nnc(-c2c([C@H]3CC[C@H]4[C@@H]5CC=C6C[C@H](O)CC[C@]6(C)[C@H]5CC[C@]34C)csc2N)n1-c1ccccc1 | 1.77%

System: not listed separately
Assay: Cmax in C57BL/6 mouse administered via oral gavage by LC-MS/MS analysis
Assay type: ADME
Conditions: in vivo

Row | Compound | Cmax
32 | Cc1c(CSc2nc3ccccc3[nH]2)cccc1SCCOC(=O)Nc1ccccc1 | 900 ng/mL

System: Helicobacter pylori
Assay: Antibacterial activity against Helicobacter pylori ATCC 43504 assessed as reduction in bacterial growth incubated for 24 hrs by broth micro-dilution method
Assay type: functional
Conditions: not given

Row | Compound | MIC
33 | C=CCSCC=C [DIALLYL SULFIDE] | 100 µg/mL (≈ 876 µM)

System: Rattus norvegicus
Assay: Protection against aspirin-induced Sprague-Dawley rat model assessed as reduction in gastric glandular lesion at 20 mg/kg, po administered for 30 mins once a day relative to control
Assay type: functional
Set-up: scale not given: the % may be the effect or the level left
Conditions: 0.5 h

Row | Compound | Activity
34 | CC(CC1OCCc2ccccc21)NCCc1ccccc1 (stereo unspecified) | 71.3%
35 | CC(C)NC(C)CC1OCCc2ccccc21 (stereo unspecified) | 61%
36 | CC(CC1CCCc2ccccc21)NCC(C)c1ccccc1 (stereo unspecified) | 71.3%
37 | CC(CC1OCCc2ccccc21)NCC(C)c1ccccc1 (stereo unspecified) | 71.3%
38 | CN/C(=N\CCSCc1nc[nH]c1C)NC#N [CIMETIDINE] | 51.6%

System: Mus musculus
Assay: Gastric ulcerogenic activity in Swiss albino mouse model assessed as inhibition of gastric inflammation at 250 mg/kg, po relative to control
Assay type: functional
Set-up: scale not given: the % may be the effect or the level left
Conditions: not given

Row | Compound | Activity
39 | CCOC(=O)/C(=N/Nc1ccccc1)Sc1nnc(-c2c([C@H]3CC[C@H]4[C@@H]5CC=C6C[C@H](O)CC[C@]6(C)[C@H]5CC[C@]34C)csc2N)n1-c1ccccc1 | 6.7%
40 | CCOC1=C(Sc2nnc(-c3c([C@H]4CC[C@H]5[C@@H]6CC=C7C[C@H](O)CC[C@]7(C)[C@H]6CC[C@]45C)csc3N)n2-c2ccccc2)C(c2ccccc2)C(C#N)=C(N)N1 (stereo partly specified) | 5.9%
41 | CC(=O)/C(=N/Nc1ccccc1)Sc1nnc(-c2c([C@H]3CC[C@H]4[C@@H]5CC=C6C[C@H](O)CC[C@]6(C)[C@H]5CC[C@]34C)csc2N)n1-c1ccccc1 | 6.2%

System: Mus musculus
Assay: Anti-ulcerogenic activity in ethanol-induced gastric ulcer mouse model assessed as reduction in ulcer formation at 250 mg/kg
Assay type: functional
Conditions: not given

Row | Compound | Activity_index
42 | Cc1cc(S(=O)(=O)N2CCN(S(=O)(=O)c3ccccc3)CC2)c2c(C)ccc(C(C)C)cc1-2 | 1.12
43 | Cc1cc(S(=O)(=O)N2CCN(S(C)(=O)=O)CC2)c2c(C)ccc(C(C)C)cc1-2 | 1.714
44 | C[C@]12CCC(=O)C=C1CC[C@@H]1[C@@H]2CC[C@]2(C)c3nc(NC4=C(C#N)C(c5ccc(Cl)cc5)C(C#N)=C(N)O4)sc3C[C@@H]12 (stereo partly specified) | 2.48
45 | CCOC(=O)CN1CCN(S(=O)(=O)c2cc(C)c3cc(C(C)C)ccc(C)c2-3)CC1 | 1.875
46 | COc1ccc(C2C(C#N)=C(O)OC(Nc3nc4c(s3)C[C@H]3[C@@H]5CCC6=CC(=O)CC[C@]6(C)[C@H]5CC[C@]43C)=C2C#N)cc1 (stereo partly specified) | 2.48

Species: Rattus norvegicus
Assay: Anti-ulcer activity in stress-induced Sprague-Dawley rat […] model assessed as reduction in ulcer fomation
Assay type: functional
Set-up: Activity: concentration or dose not given beside the values
Conditions: not given

Row | Compound | Activity
47 | CC(C)Cc1ccc(C(C)C(=O)NS(=O)(=O)c2ccc(N)cc2)cc1 (stereo unspecified) | 8%
48 | COC1Oc2ccccc2-c2sc(C=O)cc21 (stereo unspecified) | 7.3%
49 | CCCc1cc([S+]([O-])c2nc3cc(C)ccc3[nH]2)nc(C)n1 (stereo unspecified) | 72.87%
50 | CCCc1cc([S+]([O-])c2nc3cc([N+](=O)[O-])ccc3[nH]2)nc(C)n1 (stereo unspecified) | 75.15%
51 | CCCc1cc([S+]([O-])c2nc3ccccc3[nH]2)nc(C)n1 (stereo unspecified) | 74.03%
52 | CC(C)Cc1ccc(C(C)C(=O)O)cc1 (stereo unspecified) [IBUPROFEN] | 35%

Same assay, conditions: Rattus norvegicus, Sprague-Dawley

Row | Compound | ED50
53 | Cc1c(OCC(F)(F)C(F)(F)F)ccnc1C[S+]([O-])c1nc2ccccc2[nH]1 (stereo unspecified) | 5.1 mg/kg
54 | Cc1c(OCC(F)(F)C(F)F)ccnc1C[S+]([O-])c1nc2ccccc2[nH]1 (stereo unspecified) | 1.2 mg/kg
55 | [O-][S+](Cc1cc(OCC(F)(F)F)ccn1)c1nc2ccccc2[nH]1 (stereo unspecified) | 2 mg/kg
56 | Cc1c(OCC(F)(F)F)ccnc1C[S+]([O-])c1nc2ccccc2[nH]1 (stereo unspecified) [LANSOPRAZOLE] | 2.4 mg/kg

System: Rattus norvegicus
Assay: Gastric ulcerogenic activity in Wistar rat assessed as reduction in gastric inflammation at 0.02 mg/kg, po relative to control
Assay type: functional
Set-up: scale not given: the % may be the effect or the level left
Conditions: not given

Row | Compound | Activity
57 | CN(C)c1ccc(/C=C/C(=C2C(=O)NC(=O)NC2=O)c2nc3ccccc3[nH]2)cc1 | 69.56%
58 | O=C1NC(=O)C(=C(/C=C/c2ccccc2)c2nc3ccccc3[nH]2)C(=O)N1 | 63.04%
59 | O=C1NC(=O)C(=C(/C=C/c2ccc(Cl)cc2)c2nc3ccccc3[nH]2)C(=O)N1 | 69.56%
60 | COc1ccc(/C=C/C(=C2C(=O)NC(=O)NC2=O)c2nc3ccccc3[nH]2)cc1 | 67.17%
61 | COc1nc(C[S+]([O-])c2nc3ccccc3[nH]2)nc2scc(-c3ccccc3)c12 (stereo unspecified) | 64.6%
62 | COc1ccc2[nH]c([S+]([O-])Cc3nc(Cl)c4c(-c5ccccc5)csc4n3)nc2c1 (stereo unspecified) | 70.2%
63 | COc1ccc2[nH]c([S+]([O-])Cc3nc(Cl)c4c(-c5ccc(Cl)cc5)csc4n3)nc2c1 (stereo unspecified) | 72.6%

Biological target: not listed separately
Assay: Inhibition of Hydrogen potassium ATPase (unknown origin)
Set-up: species or system Homo sapiens
Conditions: not given

Row | Compound | IC50
64 | Cc1ccc(-c2csc(NC(=O)/C=C/c3ccc(O)c(O)c3)n2)cc1 | 35.35 µg/mL
65 | COc1ccc2[nH]c([S+]([O-])Cc3ncc(C)c(OC)c3C)nc2c1 (stereo unspecified) [OMEPRAZOLE] | 37.91 µg/mL

Same assay, conditions: read-out: IC50

Row | Compound | pIC50
66 | Brc1ccc(C2CC(c3ccco3)=Nc3ccccc3S2)cc1 (stereo unspecified) | 5.68
67 | COc1ccc(C2CC(c3ccco3)=Nc3ccccc3S2)cc1 (stereo unspecified) | 5.70
68 | CCc1ccc(-c2nc3c(C(=O)NCc4cccc(CN)c4)cccn3c2NCc2ccccc2)cc1 | 5.22
69 | Cc1ccccc1-c1nc2c(C(=O)NCc3cccc(CN)c3)cccn2c1NCc1ccccc1 | 5.21

Biological target: T1, Gastrin/cholecystokinin type B receptor (Homo sapiens, UniProt P32239)
T1 sequence (P32239 whole entry): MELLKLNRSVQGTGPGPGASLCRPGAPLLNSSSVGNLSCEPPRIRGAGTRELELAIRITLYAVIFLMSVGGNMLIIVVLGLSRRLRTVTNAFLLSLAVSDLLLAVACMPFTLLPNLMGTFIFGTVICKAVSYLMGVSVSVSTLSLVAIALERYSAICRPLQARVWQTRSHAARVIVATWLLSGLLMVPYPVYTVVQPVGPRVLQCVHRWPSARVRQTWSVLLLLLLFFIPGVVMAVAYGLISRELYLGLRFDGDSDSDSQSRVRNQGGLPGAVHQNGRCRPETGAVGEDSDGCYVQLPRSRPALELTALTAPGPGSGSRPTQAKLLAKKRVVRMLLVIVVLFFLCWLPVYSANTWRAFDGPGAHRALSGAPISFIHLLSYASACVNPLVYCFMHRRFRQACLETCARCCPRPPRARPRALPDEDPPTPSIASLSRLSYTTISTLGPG
Assay: Antagonist activity at human CCKBR
Assay type: functional
Conditions: not given

Row | Compound | pIC50
70 | CCCc1ccc([C@@H]2N[C@H](C(=O)OC)CC3c4ccccc4NC32)cc1 (stereo partly specified) | 3.85
71 | COC(=O)[C@H]1Cc2c([nH]c3ccccc23)[C@H](c2ccc(C)cc2)N1 | 4.19
